In ChEMBL document CHEMBL1201862, “PubChem BioAssay data set” (2004):
One block for each compound: values may come before it. Calls of active or inactive are those of the source.

Columns and labels:
Cysteine protease ATG4B = Cysteine protease ATG4B (Homo sapiens, UniProt Q9Y4P1); assay type: functional;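 also: Fluorescence-based dose-response confirmation assay measuring inhibition of ATG4B activity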
Phospholipase A2 = Phospholipase A2 (Homo sapiens, UniProt P04054); assay type: functional;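 also: confirmatory dose-response counterscreen on phospholipase A2, testing hits that came from an ultra-high-throughput screen for ATG4B inhibitors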
Chain of Phospholipase A2 (P04054 whole entry): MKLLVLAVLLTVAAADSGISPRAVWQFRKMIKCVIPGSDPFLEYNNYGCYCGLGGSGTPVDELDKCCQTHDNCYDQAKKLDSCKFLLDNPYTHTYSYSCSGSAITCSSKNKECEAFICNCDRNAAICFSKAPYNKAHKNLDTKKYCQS

[1] = target: Delta-type opioid receptor (Homo sapiens, UniProt P41143); assay: Counterscreen for agonists of heterodimerization of the mu 1 (OPRM1) and delta 1 (OPRD1) opioid receptors: Luminescence-based cell-based high throughput dose response assay to identify agonists of OPRD1 homodimerization. [Related pubchem assays (depositor defined):AID504326, AID504355, AID504692, AID504904, AID504905]; assay type: functional
Chain of Delta-type opioid receptor (P41143 whole entry): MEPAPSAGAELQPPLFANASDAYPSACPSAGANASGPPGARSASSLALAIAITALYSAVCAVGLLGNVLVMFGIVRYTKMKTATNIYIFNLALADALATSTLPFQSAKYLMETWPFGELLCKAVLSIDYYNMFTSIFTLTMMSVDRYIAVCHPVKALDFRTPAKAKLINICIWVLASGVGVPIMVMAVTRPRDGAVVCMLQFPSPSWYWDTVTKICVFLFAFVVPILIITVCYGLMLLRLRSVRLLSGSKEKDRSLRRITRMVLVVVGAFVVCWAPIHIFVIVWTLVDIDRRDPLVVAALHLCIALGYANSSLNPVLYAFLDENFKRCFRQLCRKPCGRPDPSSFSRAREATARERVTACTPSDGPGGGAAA

[2] = target: 5-hydroxytryptamine receptor 5A (Homo sapiens, UniProt P47898); assay: Counterscreen for agonists of OPRM1-OPRD1 heterodimerization: luminescence-based cell-based high throughput dose response assay to identify agonists of 5-hydroxytryptamine (serotonin) 5A receptor (HTR5A). [Related pubchem assays (depositor defined):AID504326, AID504355, AID504692, AID504904, AID504905]; assay type: functional
Chain of 5-hydroxytryptamine receptor 5A (P47898 whole entry): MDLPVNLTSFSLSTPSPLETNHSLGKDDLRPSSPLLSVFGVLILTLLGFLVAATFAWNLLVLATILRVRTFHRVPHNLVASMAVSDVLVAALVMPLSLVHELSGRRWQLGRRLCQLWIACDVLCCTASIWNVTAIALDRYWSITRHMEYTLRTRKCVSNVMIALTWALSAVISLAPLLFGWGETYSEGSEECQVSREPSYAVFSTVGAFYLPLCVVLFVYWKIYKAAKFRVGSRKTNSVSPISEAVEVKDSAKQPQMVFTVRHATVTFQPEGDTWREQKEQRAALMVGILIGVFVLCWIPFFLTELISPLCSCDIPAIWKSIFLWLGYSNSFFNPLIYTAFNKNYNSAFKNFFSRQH

[3] = target: T1, Short transient receptor potential channel 4 (Mus musculus, UniProt Q9QUQ5); assay: mouse TRPC4 channel activators, dose response, cell-based, HEK293 TRPC4/mu-opioid, Fluo-4 calcium (AID 434937); assay type: functional
T1 sequence (Q9QUQ5 whole entry): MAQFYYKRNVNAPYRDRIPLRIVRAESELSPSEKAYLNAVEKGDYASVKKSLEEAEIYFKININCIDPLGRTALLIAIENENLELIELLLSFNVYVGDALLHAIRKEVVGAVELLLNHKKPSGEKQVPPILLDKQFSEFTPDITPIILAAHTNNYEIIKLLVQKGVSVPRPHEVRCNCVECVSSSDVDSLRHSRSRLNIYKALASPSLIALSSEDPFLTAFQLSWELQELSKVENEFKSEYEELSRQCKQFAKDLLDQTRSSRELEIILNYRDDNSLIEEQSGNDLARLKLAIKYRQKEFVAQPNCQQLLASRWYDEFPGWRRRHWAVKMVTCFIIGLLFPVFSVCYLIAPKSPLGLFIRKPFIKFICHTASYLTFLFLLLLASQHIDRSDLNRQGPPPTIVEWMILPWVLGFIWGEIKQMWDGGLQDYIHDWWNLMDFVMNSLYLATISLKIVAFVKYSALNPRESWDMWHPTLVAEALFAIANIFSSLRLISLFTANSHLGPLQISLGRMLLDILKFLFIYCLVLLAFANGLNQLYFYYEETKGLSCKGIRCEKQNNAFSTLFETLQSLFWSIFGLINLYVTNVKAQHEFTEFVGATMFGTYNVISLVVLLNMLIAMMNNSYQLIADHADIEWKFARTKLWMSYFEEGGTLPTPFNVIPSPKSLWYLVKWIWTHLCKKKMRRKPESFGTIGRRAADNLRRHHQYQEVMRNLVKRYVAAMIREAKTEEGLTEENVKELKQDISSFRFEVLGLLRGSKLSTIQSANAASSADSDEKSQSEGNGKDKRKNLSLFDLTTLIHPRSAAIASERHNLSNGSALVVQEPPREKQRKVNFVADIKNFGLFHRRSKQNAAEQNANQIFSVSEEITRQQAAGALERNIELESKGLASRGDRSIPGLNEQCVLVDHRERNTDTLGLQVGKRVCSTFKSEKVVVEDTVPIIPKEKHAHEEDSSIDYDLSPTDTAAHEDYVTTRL

Mu-type opioid receptor = Mu-type opioid receptor (Homo sapiens, UniProt P35372); assay: Counterscreen for agonists of heterodimerization of the mu 1 (OPRM1) and delta 1 (OPRD1) opioid receptors: Luminescence-based cell-based high throughput dose response assay to identify agonists of OPRM1 homodimerization.; assay type: functional;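 also: U2OS cells expressing OPRM1 and beta-arrestin as split beta-galactosidase partners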
Chain of Mu-type opioid receptor (P35372 whole entry): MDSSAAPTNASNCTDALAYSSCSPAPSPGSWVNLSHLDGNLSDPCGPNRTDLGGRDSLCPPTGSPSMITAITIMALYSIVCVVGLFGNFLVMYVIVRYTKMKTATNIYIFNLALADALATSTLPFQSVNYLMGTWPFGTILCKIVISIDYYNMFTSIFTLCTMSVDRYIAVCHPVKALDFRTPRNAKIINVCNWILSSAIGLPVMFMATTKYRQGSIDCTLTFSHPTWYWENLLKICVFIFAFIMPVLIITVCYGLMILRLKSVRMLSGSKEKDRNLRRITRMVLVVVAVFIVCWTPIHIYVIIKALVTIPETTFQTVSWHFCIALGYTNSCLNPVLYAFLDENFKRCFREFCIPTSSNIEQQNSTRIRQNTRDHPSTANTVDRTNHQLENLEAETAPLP

[4] = target: T2, Sentrin-specific protease 7 (Homo sapiens, UniProt Q9BQF6); assay: SENP7 protease inhibitors, SAR follow-up, biochemical, luminescence (AID 504497); assay type: functional
T2 sequence (Q9BQF6 whole entry): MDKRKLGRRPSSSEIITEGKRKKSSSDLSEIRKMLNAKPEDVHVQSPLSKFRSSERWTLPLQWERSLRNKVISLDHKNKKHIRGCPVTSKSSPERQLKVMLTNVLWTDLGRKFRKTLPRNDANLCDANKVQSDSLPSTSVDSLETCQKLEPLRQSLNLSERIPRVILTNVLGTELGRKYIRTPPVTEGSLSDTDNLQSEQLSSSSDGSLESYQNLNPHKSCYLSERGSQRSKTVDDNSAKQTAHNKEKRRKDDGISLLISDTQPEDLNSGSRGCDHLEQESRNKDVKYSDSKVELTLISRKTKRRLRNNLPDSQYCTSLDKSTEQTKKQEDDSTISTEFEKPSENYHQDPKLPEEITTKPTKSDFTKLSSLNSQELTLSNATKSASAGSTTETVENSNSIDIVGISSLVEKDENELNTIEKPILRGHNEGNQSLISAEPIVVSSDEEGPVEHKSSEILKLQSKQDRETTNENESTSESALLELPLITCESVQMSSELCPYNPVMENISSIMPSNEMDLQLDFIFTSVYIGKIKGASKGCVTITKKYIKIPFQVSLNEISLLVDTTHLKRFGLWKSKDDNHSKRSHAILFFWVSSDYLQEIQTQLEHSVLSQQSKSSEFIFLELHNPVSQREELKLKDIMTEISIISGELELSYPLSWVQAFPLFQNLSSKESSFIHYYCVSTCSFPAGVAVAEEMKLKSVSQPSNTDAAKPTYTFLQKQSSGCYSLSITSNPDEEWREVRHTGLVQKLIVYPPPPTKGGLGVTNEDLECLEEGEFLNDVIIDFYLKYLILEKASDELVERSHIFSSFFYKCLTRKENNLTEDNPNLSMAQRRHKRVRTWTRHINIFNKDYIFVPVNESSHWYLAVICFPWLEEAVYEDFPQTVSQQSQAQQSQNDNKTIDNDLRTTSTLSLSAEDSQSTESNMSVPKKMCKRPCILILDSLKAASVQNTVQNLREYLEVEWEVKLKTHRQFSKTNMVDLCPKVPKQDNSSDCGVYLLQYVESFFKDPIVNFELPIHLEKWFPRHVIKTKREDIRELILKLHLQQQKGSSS

Caspase-3 = target: T3, Caspase-3 (Homo sapiens, UniProt P42574); assay: SAR Analysis of small molecule inhibitors of Sentrin-specific proteases (SENPs) using a Caspase-3 Selectivity assay. [Related pubchem assays (depositor defined):AID2540, AID2599, AID434973, AID489001]; assay type: functional
T3 sequence (P42574 whole entry): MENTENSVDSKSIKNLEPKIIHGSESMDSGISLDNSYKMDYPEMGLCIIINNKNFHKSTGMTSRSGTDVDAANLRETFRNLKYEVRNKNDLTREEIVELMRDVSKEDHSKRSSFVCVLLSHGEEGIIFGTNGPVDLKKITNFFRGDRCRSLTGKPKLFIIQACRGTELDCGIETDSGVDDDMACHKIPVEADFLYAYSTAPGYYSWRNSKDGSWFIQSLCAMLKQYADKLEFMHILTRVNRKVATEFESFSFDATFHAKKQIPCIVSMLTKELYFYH

[5] = target: T4, Sentrin-specific protease 6 (Homo sapiens, UniProt Q9GZR1); assay: SAR Analysis of small molecule inhibitors of Sentrin-specific protease 6 (SENP6) using a Luminescent assay. [Related pubchem assays (depositor defined):AID2582, AID2599]; assay type: functional
T4 sequence (Q9GZR1 whole entry): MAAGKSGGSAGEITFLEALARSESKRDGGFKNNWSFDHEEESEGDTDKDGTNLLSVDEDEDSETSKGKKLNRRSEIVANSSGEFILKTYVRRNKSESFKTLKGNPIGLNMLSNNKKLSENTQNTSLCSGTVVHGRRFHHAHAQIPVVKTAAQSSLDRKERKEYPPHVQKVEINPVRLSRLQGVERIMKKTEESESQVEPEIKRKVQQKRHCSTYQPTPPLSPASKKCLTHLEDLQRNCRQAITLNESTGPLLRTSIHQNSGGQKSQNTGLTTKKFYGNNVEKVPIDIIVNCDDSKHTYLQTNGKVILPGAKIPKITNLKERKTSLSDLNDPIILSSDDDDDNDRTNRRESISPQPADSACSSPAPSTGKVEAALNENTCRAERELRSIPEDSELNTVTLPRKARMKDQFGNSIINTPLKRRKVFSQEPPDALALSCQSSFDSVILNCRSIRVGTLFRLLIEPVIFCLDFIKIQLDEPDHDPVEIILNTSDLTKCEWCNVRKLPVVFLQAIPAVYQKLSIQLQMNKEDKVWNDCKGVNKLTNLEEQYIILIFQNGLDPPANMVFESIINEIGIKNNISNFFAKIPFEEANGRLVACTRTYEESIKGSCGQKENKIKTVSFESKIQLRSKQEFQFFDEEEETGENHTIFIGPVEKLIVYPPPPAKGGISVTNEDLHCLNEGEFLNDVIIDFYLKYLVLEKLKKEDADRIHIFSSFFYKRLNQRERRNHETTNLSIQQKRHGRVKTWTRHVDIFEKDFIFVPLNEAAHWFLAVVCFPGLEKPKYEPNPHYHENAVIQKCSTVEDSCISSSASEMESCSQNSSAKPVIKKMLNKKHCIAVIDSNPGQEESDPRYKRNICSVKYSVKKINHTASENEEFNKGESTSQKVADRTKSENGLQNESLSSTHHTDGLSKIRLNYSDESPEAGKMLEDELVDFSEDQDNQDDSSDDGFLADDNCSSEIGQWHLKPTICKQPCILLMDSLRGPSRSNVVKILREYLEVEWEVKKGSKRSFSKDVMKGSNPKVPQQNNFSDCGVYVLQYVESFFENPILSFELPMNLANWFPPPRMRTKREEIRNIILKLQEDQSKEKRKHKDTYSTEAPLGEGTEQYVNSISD

[6] = target: T5, Sentrin-specific protease 8 (Homo sapiens, UniProt Q96LD8); assay: SENP8 protease inhibitors, SAR follow-up, biochemical, luminescence (AID 504501); assay type: functional
T5 sequence (Q96LD8 whole entry): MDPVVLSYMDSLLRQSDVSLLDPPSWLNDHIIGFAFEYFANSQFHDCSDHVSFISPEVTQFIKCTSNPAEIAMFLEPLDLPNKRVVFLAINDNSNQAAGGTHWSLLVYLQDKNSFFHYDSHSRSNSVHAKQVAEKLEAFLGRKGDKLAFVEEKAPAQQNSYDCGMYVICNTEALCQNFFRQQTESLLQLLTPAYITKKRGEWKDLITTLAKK

Escherichia coli [7] = assay: microbe, parasite or virus in culture
Escherichia coli [8] = assay: microbe, parasite or virus in culture; remark: listed apart in the source
[9] = target: T1, Short transient receptor potential channel 4; assay: mouse TRPC4 channel inhibitors, dose response, cell-based, HEK293 TRPC4/mu-opioid, Fluo-4 calcium (AID 434942); assay type: functional;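 also: potency of inhibitors blocking the TRPC4 calcium response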
Genome polyprotein = Genome polyprotein (dengue virus type 2, UniProt P29990); assay: Dengue-2 NS5 methyltransferase inhibitors, primary screen, biochemical, confirmation dose response (AID 588689); assay type: functional
Chain of Genome polyprotein (P29990 2492-3391 limits assumed): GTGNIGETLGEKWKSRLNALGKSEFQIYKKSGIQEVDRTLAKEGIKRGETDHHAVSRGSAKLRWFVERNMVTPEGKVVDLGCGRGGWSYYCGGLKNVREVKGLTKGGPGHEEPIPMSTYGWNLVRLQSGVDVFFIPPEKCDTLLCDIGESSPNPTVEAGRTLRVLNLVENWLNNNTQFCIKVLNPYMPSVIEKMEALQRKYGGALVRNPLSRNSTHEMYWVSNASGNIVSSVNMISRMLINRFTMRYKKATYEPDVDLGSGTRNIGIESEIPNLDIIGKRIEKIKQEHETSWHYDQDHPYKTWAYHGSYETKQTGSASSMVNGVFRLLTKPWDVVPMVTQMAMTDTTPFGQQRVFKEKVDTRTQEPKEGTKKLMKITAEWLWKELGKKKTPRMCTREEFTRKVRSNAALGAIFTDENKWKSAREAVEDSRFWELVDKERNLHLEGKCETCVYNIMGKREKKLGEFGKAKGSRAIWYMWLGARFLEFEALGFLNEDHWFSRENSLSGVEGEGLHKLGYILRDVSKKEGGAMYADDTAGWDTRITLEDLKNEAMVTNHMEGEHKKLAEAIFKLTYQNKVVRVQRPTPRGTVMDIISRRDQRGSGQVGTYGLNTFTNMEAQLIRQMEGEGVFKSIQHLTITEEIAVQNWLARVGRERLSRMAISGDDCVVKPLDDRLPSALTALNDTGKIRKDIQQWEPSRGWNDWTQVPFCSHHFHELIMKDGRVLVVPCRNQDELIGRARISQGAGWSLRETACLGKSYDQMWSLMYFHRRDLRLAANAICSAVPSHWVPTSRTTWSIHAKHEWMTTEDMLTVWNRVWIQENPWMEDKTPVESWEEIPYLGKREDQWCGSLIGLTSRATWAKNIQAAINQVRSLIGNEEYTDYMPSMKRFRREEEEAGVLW

[10] = target: Photoreceptor-specific nuclear receptor (Homo sapiens, UniProt Q9Y5X4); assay type: functional, cell-based;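 also: CHO-S cells with Gal4-NCOR and VP16-NR2E3 two-hybrid luciferase reporter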
Chain of Photoreceptor-specific nuclear receptor (Q9Y5X4 whole entry, the tested form may be a part): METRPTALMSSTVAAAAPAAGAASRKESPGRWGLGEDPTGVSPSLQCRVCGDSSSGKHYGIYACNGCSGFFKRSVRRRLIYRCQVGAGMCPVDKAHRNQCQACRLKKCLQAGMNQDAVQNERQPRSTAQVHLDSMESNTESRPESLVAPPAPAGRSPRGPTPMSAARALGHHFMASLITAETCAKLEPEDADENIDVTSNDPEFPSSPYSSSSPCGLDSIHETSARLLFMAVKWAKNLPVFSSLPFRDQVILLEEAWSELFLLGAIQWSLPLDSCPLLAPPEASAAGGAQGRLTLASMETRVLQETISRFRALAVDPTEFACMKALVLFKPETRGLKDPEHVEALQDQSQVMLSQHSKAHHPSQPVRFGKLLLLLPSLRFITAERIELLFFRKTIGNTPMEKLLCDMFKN

Vero = Vero cell cytotoxicity, cytotoxicity control for flavivirus capping enzyme inhibitors (AID 588742); assay type: functional; conditions: Chlorocebus sabaeus

Chain of Cysteine protease ATG4B (Q9Y4P1 whole entry): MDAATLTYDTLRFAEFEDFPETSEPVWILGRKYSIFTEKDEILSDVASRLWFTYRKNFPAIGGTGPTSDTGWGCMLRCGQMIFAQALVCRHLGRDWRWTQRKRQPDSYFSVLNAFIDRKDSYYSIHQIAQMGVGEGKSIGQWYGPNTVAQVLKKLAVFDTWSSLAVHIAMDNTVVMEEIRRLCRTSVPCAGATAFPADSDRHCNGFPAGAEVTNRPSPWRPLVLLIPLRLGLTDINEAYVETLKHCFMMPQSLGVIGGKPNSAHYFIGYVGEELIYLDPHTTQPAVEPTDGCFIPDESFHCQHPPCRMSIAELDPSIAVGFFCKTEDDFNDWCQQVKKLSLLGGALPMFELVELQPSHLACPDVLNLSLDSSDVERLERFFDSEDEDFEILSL

EC50 [1]: > 92.5 µM (inactive)
EC50 [2]: > 92.5 µM (inactive)
EC50 [3]: 0.473 µM (active)
EC50 (Mu-type opioid receptor): > 92.5 µM (inactive)
SMILES: CCOC(=O)C1(CC2CCCCO2)CCN(Cc2cc(F)ccc2-n2cccn2)CC1 (stereo not given)

IC50 [4]: > 99 µM (inactive)
IC50 (Caspase-3): > 99 µM (inactive)
IC50 [5]: > 99 µM (inactive)
SMILES: O=C(Nc1nc2ccc(Cl)cc2s1)c1cc2ccccc2o1
IC50 [6]: > 99 µM (inactive)

IC50 (Cysteine protease ATG4B): 10.8 µM (active)
IC50 (Phospholipase A2): 9.35 µM (active)
SMILES: O=C(CNCC1CCCCC1)Nc1ccccc1N1CCCCC1

IC50 (Genome polyprotein): 43.4 µM (active)
IC50 [10]: 6.21 µM (active)
SMILES: Cc1ccc(S(=O)(=O)N2[C@@H](c3ccc(Cl)c(Cl)c3)C(C(=O)O)=C[C@H]2CC2CCCC2)cc1
CC50 (Vero): > 40 µM (active)

Further lines, the compound ahead of its results:

SMILES: COC(=O)c1sc(N(C)C)c(C#N)c1-c1ccccc1
IC50 (Cysteine protease ATG4B): 12.4 µM (active)
IC50 (Phospholipase A2): 8.76 µM (active)

SMILES: OCC1(Cc2ccc(Cl)cc2)CCN(Cc2ccccc2F)CC1
AC50 (Escherichia coli [7]): 88.9 µM (active)
AC50 (Escherichia coli [8]): 21.9 µM (active)
EC50 [9]: 5.96 µM (active)

SMILES: COCCCn1c(SCCc2ccccc2)nc2cc(OC)c(OC)cc2c1=N
AC50 (Escherichia coli [7]): 37.6 µM (active)
AC50 (Escherichia coli [8]): 51.3 µM (active)
